Test system: AMPA receptors
Assay: Excitatory fluxes induced by AMPA in Xenopus oocytes (2-electrode voltage-clamp)
Assay type: cell-based
Conditions: AMPA 30 μM; Xenopus oocytes injected with rat cortex poly(A+) mRNA; 20-24° C.
Description: mRNAs are prepared from cerebral cortex of male Wistar rat by the guanidium thiocyanate/phenol/chloroform method. The poly(A^+)mRNAs are isolated by chromatography on oligo-dT cellulose and injected with 50 ng per oocyte. The oocytes are left for 2 to 3 days' incubation at 10° C. to enable expression of the receptors and are then stored at 8-10° C.
Electrophysiological recording is carried out in a plexiglass chamber at 20-24° C. in an OR2 medium (J. Exp. Zool., 1973, 184, 321-334) by the 2-electrode “voltage-clamp” method, with a 3rd electrode being placed in the bath to serve as reference.
All the compounds are administered via the incubation medium and the electric current is measured at the end of the period of administration. AMPA is used in a concentration of 30 μM. For each compound studied, there is determined the concentration that doubles (EC2X) or quintuples (EC5X) the intensity of the flux induced by AMPA alone (50 to 100 nA).

CCN1CNS(=O)(=O)c2cc(Br)ccc21 [Example 3, 7-Bromo-4-ethyl-2,3-dihydro-4H-1,2,4-benzothiadiazine 1,1-dioxide]
EC2X (concentration that doubles the intensity of the flux induced by AMPA alone): 29 ± 6 µM | EC5X (concentration that quintuples the intensity of the flux induced by AMPA alone): 78 ± 16 µM

CCN1CNS(=O)(=O)c2cc(I)ccc21 [Example 4, 4-Ethyl-7-iodo-2,3-dihydro-4H-1,2,4-benzothiadiazine 1,1-dioxide]
EC2X (concentration that doubles the intensity of the flux induced by AMPA alone): 95 ± 31 µM | EC5X (concentration that quintuples the intensity of the flux induced by AMPA alone): >300 µM

— patent US6894043B1, “Benzothiadiazine derivatives, preparation method and pharmaceutical compositions containing same” (Les Laboratoires Servier, priority 1999, dated 2005)
